Series [1] has as its system MEL-JUSO xenografts. Nature of the series: Compound A and Compound B efficacy in MEL-JUSO xenografts (NRAS mutant melanoma). Format: in vivo. To be noted: oral. From the text: The oncogenic drivers in a sizable fraction of melanomas are mutant alleles of NRAS that encode one of several variants at position Q61 in the protein. Similar to activated alleles of BRAF, these alleles encode constitutively activated forms of the protein that drive signaling through the MAPK pathway. One consequence of the activation of MAPK signaling is the elevation of cyclin D1 levels that help drive cell cycle progression. […] Based on these observations, the single agent and combination effects of Compound A, and the MEK1/2 inhibitor Compound B, on the in vivo proliferation of MEL-JUSO melanoma model, harboring mutant alleles of NRAS was studied. […] T/C % is defined as the mean change in tumor volume from the time of treatment initiation to the end of study. The % regression is calculated as 100×ΔT/Tinitial if ΔT<0. Complete regression is defined as non-palpable tumor.
All treatments were well-tolerated by the animals with no significant body weight loss observed over the duration of the study (Table 5).

In the next series the test system is Hs 944.T xenografts. In words: Compound A efficacy in Hs 944.T xenografts in nude mice. Format: in vivo, mouse. To be noted: for Change in body weight (%, mean ± SEM) / Change in tumor volume (mm^3, mean ± SEM) / Survival / T/C (%): oral.
The subject of series [2] is SK-MEL2 melanoma cells with activated NRAS. In words: BrdU uptake assay, SK-MEL2. Format: cell-based. To be noted: Homo sapiens, SK-MEL-2. How it is done:
(§1) Three melanoma cell lines, MEL-JUSO, SK-MEL2 and Hs 944.T, which harbor the Q61X activating mutation of NRAS, were tested with Compound A and Compound B to measure their sensitivity to the inhibitors.

For series [3], the system named is MEL-JUSO melanoma cells with activated NRAS. Nature of the series: BrdU uptake assay, MEL-JUSO. Format: cell-based. The note with it: Homo sapiens. Here is the method:
as §1

Series [4] deals with Hs 944.T melanoma cells with activated NRAS. Nature of the series: BrdU uptake assay, Hs 944.T. The class given is cell-based. The note with it: Hs 944.T cells. How it is done: as §1
For series [5], the system named is MEL-JUSO xenografts. In words: Compound A efficacy in MEL-JUSO xenografts in SCID-beige mice. The class given is in vivo. To be noted: Compound A 150 mg/kg qd, oral.

For `CN(C)C(=O)c1cc2cnc(Nc3ccc(N4CCNCC4)cn3)nc2n1C1CCCC1` [Compound A, 7-Cyclopentyl-2-(5-piperazin-1-yl-pyridin-2-ylamino)-7H-pyrrolo[2,3-d]pyrimidine-6-carboxylic acid dimethylamide], the “Change in body weight (%, mean ± SEM)” value is on record as −3.9 ± 1.5% in the series on MEL-JUSO xenografts [1] (Compound A 75 mg/kg qd); −3.9 ± 2.1% in the series with MEL-JUSO xenografts [1] (Compound A 150 mg/kg qd); −2.7 ± 1.6% with MEL-JUSO xenografts [1] (Compound A 250 mg/kg qd); −12.7 ± 2.1% with Hs 944.T xenografts (Compound A 150 mg/kg qd); −19.7 ± 0.6% with Hs 944.T xenografts (Compound A 250 mg/kg qd); −7.3 ± 1.2% in the series on MEL-JUSO xenografts [5]. For the same compound, the “Change in tumor volume (mm^3, mean ± SEM)” value (“Change … (mm^3, mean ± SEM)” below) was 236 ± 32 mm^3 in the series with MEL-JUSO xenografts [1] (Compound A 75 mg/kg qd); 157 ± 33 mm^3 in the series on MEL-JUSO xenografts [1] (Compound A 150 mg/kg qd); 9 ± 11 mm^3 in the series with MEL-JUSO xenografts [1] (Compound A 250 mg/kg qd); 86 ± 17 mm^3 in the series on Hs 944.T xenografts (Compound A 150 mg/kg qd); 45 ± 25 mm^3 in the series with Hs 944.T xenografts (Compound A 250 mg/kg qd); −32 ± 14 mm^3 in the series with MEL-JUSO xenografts [5]. For the same compound, the Survival in the series with MEL-JUSO xenografts [1] (Compound A 75 mg/kg qd) is reported as 6/6; in the series with MEL-JUSO xenografts [1] (Compound A 150 mg/kg qd), 6/6; with MEL-JUSO xenografts [1] (Compound A 250 mg/kg qd), 6/6; in the series with Hs 944.T xenografts (Compound A 150 mg/kg qd) it was 5/8; in the series on Hs 944.T xenografts (Compound A 250 mg/kg qd), 5/8; with MEL-JUSO xenografts [5], 6/6. The “T/C (%)” value in the series on MEL-JUSO xenografts [1] (Compound A 75 mg/kg qd) is listed as 47%; in the series on MEL-JUSO xenografts [1] (Compound A 150 mg/kg qd), 32%; in the series on MEL-JUSO xenografts [1] (Compound A 250 mg/kg qd) it was 2%; in the series on Hs 944.T xenografts (Compound A 150 mg/kg qd) it was 36%; in the series on Hs 944.T xenografts (Compound A 250 mg/kg qd) it was 19%. Moreover, the “Animals classified as TR deaths due to body weight loss criteria” value was “Three animals each from the 150 mg/kg and 250 mg/kg Compound A treatment groups were classified as TR deaths due to body weight loss criteria, and excluded from data analysis” in the series with Hs 944.T xenografts (Compound A 150 mg/kg qd); “Three animals each from the 150 mg/kg and 250 mg/kg Compound A treatment groups were classified as TR deaths due to body weight loss criteria, and excluded from data analysis” in the series on Hs 944.T xenografts (Compound A 250 mg/kg qd). Also, the 50% inhibitory concentration (IC50) in series [2] amounted to 750 nM; in series [3] it was 360 nM; in series [4], 3830 nM.
Regarding `Cn1cnc2c(F)c(Nc3ccc(Br)cc3F)c(C(=O)NOCCO)cc21` [Compound B, 6-(4-bromo-2-fluorophenylamino)-7-fluoro-3-methyl-3H-benzoimidazole-5-carboxylic acid (2-hydroxyethyoxy)-amide], in the series with MEL-JUSO xenografts [1] (Compound B 3.5 mg/kg bid), the “Change in body weight (%, mean ± SEM)” value is listed as −0.3 ± 2.1%; the “Change … (mm^3, mean ± SEM)” value was 59 ± 24 mm^3; the Survival is given as 6/6; the “T/C (%)” value is reported as 12%. In addition, in the series on MEL-JUSO xenografts [1] (Compound B 10 mg/kg bid), the “Change in body weight (%, mean ± SEM)” value was found to be 5.1 ± 1.1%; the “Change … (mm^3, mean ± SEM)” value is −47 ± 11 mm^3; the “Regression (%)” value is given as 38%; the Survival is on record as 6/6. For the same compound, the IC50 in series [2] was determined as 990 nM. The IC50 in series [3] worked out at 24 nM. Further, the midpoint of inhibition in series [4], the IC50, lay at 554 nM.

One may read the IC50 as the concentration needed to halve the response being measured. High values mean lower potency, low ones higher potency.
